Data set [1] deals with accumulation of sorbitol in nervous tissues. Kind of data set: Inhibiting activity of the accumulation of sorbitol in nervous tissues of streptozotocin-diabetic rats. It is filed as in vivo, SD male rats. Particulars: comparison compounds with linear alkyl group at 5-position; dose not stated.
The test system is the same in data set [2]. The data set is described as above. It is filed as in vivo, SD male rats. As to conditions: single dose 48 h after streptozotocin, sciatic nerve sorbitol 5 hours after administration, mean ± spread. As to the method: After preliminary breeding SD male rats (6 weeks old) in this laboratory for 5 days, streptozotocin (made by Sigma Chemical Company) was administered intravenously (45 mg/kg body weight) to the rats to destroy β cells of Langerhans' islets in pancreas. Thus, rats suffering from diabetes were obtained.
After 48 hours from the administration of streptozotocin, the rhodanine derivative suspended in a 5 % aqueous solution of gum arabic was administered orally (100 mg/kg body weight or 25 mg/kg body weight) to the rats suffering from diabetes.
On the other hand, a 5 % aqueous solution of gum arabic having no rhodanine derivative was administered orally (5 mℓ/kg body weight) to the rats (a control group).
After 5 hours from the administration, the rats were sacrificed by the decapitation and bled to death. Immidiately, the sciatic nervous tissues of the rats were excised and frozen with dry ice. The excised sciatic nervous tissues were stored at -70°C until the sorbitol amount was measured.
After the wet weights of nervous tissues were measured, the tissues were homogenized in 1.0 mℓ of distilled water by using a homogenizer, to which 0.2 mℓ of a 4.5 % aqueous solution of barium hydroxide and 0.2 mℓ of a 5 % aqueous solution of zinc sulfate were added. The mixture was centrifuged for 10 minutes at 3,000 rpm to remove a precipitate. Ion exchange resins "Dowex 50 W" (Dow Chemical Co.) and "Duolite A-4" (Sumitomo Chemical Company, Limited.) purchased were added in small amounts to the obtained supernatant to desalt, which was recentrifuged to obtain a supernatant. To 0.5 mℓ of the extract of sorbitol were added 1.0 mt of a 50 mM glycine-sodium hydroxide buffer solution (pH 9.4) containing 0.2 mM nicotinamide adenine dinucleotide (NAD) and 50 µℓ of an enzyme solution containing 83 µg of sorbitol dehydrogenase (commercially available from BOEHRINGER MANNHEIM CORPORATION), and the mixture was reacted at room temperature for one hour. The amount of NADH formed by oxidation of sorbitol was measured by using a spectrofluorimeter and a sorbitol concentration in the extracts was measured. From the obtained results, sorbitol concentrations in nervous tissues (n mole/mg wet weight) were calculated.
A difference between the sorbitol content of the normal rat (0.12 ± 0.01 n mole/mg) and that of the rat suffering from diabetes (0.81 ± 0.06 n mole/mg) was defined as an amount of sorbitol accumulated in the tissues due to diabetes (hereinafter referred to as "sorbitol amount due to diabetes"). Also, a difference between the sorbitol content of the rat suffering from diabetes (0.81 ± 0.06 n moles/mg) and the sorbitol content of the rat suffering from diabetes which was administered the rhodanine derivative was defined as a lowering of the amount of sorbitol due to administration of the rhodanine derivative (hereinafter referred to as "lowering of sorbitol").
A lowering percentage (%) was defined as a percentage of the lowering of sorbitol to the sorbitol amount due to diabetes. The lowering percentages of the rhodanine derivatives (Compound Nos. 1-11) are shown in Table 3 (administered 100 mg/kg body weight) and Table 4 (administered 25 mg/kg body weight) with the number of rats suffering from diabetes.

The test system of data set [3] is rats suffering from diabetes. Briefly: Improving activity of the nerve conduction velocity in diabetic rats (tail nerve, method of Miyoshi). It is filed as in vivo. As to conditions: 100 mg/kg body weight once daily for 2 weeks, control group 24.5 ± 1.2, normal rat 38.4 ± 2.2. As to the method: Rats suffering from diabetes for the test were prepared in the same manner as in Example 13.
From the day after the administration of streptozotocin, each of Compound Nos. 1-11 suspended in a 5 % aqueous solution of gum arabic was administrated to the rats in a dosage of 100 mg/kg body weight once daily for 2 weeks.
As the control groups, a 5 % aqueous solution of gum aratic having no rhodanine derivative was administered (5 mℓ/kg body weight) in the same manner as above to the rats.
Two weeks later, the conduction velocity of nerve of the rats was measured in accordance with the method of Miyoshi [Fukuoka Medical Jounal, 62(7), 588 to 603(1971)]. In this test, the nerves of the rats' tails were used as materials studied.
The rats were anesthetized with pentobarbital (30 to 45 mg/kg body weight, intraperitoneal administration), and then the conduction velocities of nerves were measured in a constant-temperature box having a temperature of 40°C.
The nerve of rat's tail was pricked with needle electrodes at a portion of about 1 cm from the anus (the first stimulation point) and at a portion of about 5 cm in a distal direction from the first stimulation point (the second stimulation point). Further, the segmental muscle of the rat's tail was pricked with a coaxial needle electrode at a portion of about 5 cm in a distol direction from the second stimulation point. The longitudinal nerve trunk of the rat's tail was stimulated at the first stimulation point and the second stimulation point to record action potentials of the provoked muscle.
The conduction velocity of nerve was calculated as follows: [formula]
Also, with respect to the normal rats administered with a 5 % aqueous solution of gum arabic, the conduction velocity of nerve was measured in the same manner as above.

The test system of data set [4] is rats suffering from diabetes. Briefly: Inhibiting activity of the progress of cataract in diabetic rats (lens opacity score by slit lamp). It is filed as in vivo. As to conditions: 100 mg/kg body weight orally daily for 5 weeks; average lens score (0-4) of both eyes; control group 1.46 ± 0.12, normal rats 0. How it is done:
Rats suffering from diabetes for the test were produced in the same manner as in Example 13.
From the day after the administration of streptozotocin, each of Compound Nos. 1-11 suspended in a 5 % aqueous solution of gum arabic was administered orally 100 mg/kg body weight daily for 5 weeks to the rats. As the control group, a 5 % aqueous solution of gum arabic having no rhodanine derivative was administered (5 mℓ/kg body weight) to the rats in the same manner as above.
After administering streptozotocin, lenses of the rats were observed by using a slit lump (commercially available from KOWA Co., Ltd. under a trade name "Kowa SL-2") every second or third day for 5 weeks, sufficiently keeping the lenses mydriasis with a mydriatic (commercially available from Santen Pharmaceutical Co., Ltd. under the trade name "MYDRIN-P".
The opaqueness of the lenses was estimated according to the following criteria. Score 0: There was no change in the lenses. […] Score 3: Opacity was observed over the whole of lens' surface and the fundus oculi was not seen as if projected through the lens. Score 4: The nucleus lentis became opaque.
Also, with respect to the normal rats administered with a 5 % aqueous solution of gum arabic, the opaqueness were estimated in the same manner as above.

For data set [5], the system named is accumulation of galactitol in red blood cells. Kind of data set: Inhibiting activity of the accumulation of galactitol in red blood cells of galactose-fed dogs. It is filed as in vivo, beagle dogs. Particulars: 10 mg/kg body weight orally once daily for 3 days; blood 10 hours after galactose 15 g/kg; control group 125 ± 10. How it is done:
Each of Compound Nos. 1-11 was administered orally in a dosage of 10 mg/kg body weight once daily for 3 days with a capsule (administration time: 9 a.m. to 9:30 a.m.) to a male or female beagle dogs (body weight: from 8 to 12 kg). As the control group, the dogs were administered with vacant capsules in the same manner as above. Dog foods containing galactose in an amount of 15 g/kg body weight were given to the dogs immediately after the final administration of the capsule. The dogs completely had eaten the dog foods for 5 to 10 minutes. The blood was collected from the cephalic vein of the dog using heparine sodium after 10 hours from the administration of galactose. The collected blood was centrifuged to give red blood cells. The obtained red blood cells were washed twice with a cold physiological saline solution and were hemolysed in distilled water having an equal volume to the red blood cells.
After removing protein from the obtained solution, the resulting solution was treated with ion exchange resins, "Dowex 50 W" and "Duolite A-4", desalted and lyophilized. After subjecting to the pre-treatment of galactitol with trimethyl silyl ether (TMS), the amount of galactitol accumulated in the red blood cells was measured by a gas chromatography.

The nature of another data set: Acute toxicity in mice. Format: in vivo. Particulars: mouse, in vivo; oral, mice observed for 2 weeks; read-out: LD₅₀ (oral). The source says:
(§1) The acute toxicity in mice was examined by using the rhodanine derivatives of compound Nos. 1, 2, 5, 7 and 10.

The next data set concerns male ddY mice. Briefly: Acute toxicity in mice. Format: in vivo. Particulars: oral, up to a dose of 2,000 mg/kg body weight, observed for 2 weeks.
Description: as §1

Marks after values point to notes of the source that are not given here.

As for `CCCCC1SC(=S)N(CC(=O)O)C1=O` (stereo not shown) [3-carboxymethyl-5-n-butylrhodanine], the “inhibition of the accumulation of sorbitol” value (“inhibition” for short) in data set [1] is given as “hardly inhibited the accumulation of sorbitol”.

For the molecule `CCCCCCCC1SC(=S)N(CC(=O)O)C1=O` (stereo not shown) [3-carboxymethyl-5-n-heptylrhodanine], in data set [1], the “inhibition” value is recorded as “hardly inhibited the accumulation of sorbitol”.

Regarding `CCCC1SC(=S)N(CC(=O)O)C1=O` (stereo not shown) [3-carboxymethyl-5-n-propylrhodanine], the “inhibition” value in data set [1] is on record as “hardly inhibited the accumulation of sorbitol”.

For the molecule `CCC(CC)CC1SC(=S)N(CC(=O)O)C1=O` (stereo not shown) [Compound No. 10, 3-Carboxymethyl-5-(2-ethylbutyl)rhodanine], the “Lowering percentage (%)” value in data set [2] (25 mg/kg body weight orally) is 18.2 ± 2.0 %; in data set [2] (100 mg/kg body weight orally), 42.9 ± 7.6*^2%. The “Conduction velocity of nerve (m/sec)” value in data set [3] is listed as 34.1 ± 4.3 m/sec. The same molecule registered an Opaqueness in data set [4] of 0.74 ± 0.12. In addition, the “Amount of galactitol in red blood cells (ng/g hemoglobin)” value in data set [5] is 90 ± 10 ng/g hemoglobin. Moreover, in the data set “Acute toxicity in mice”, the LD50 at 336 h is more than 2000 mg/kg. Also, the dead mice result in the data set with male ddY mice is reported as “no dead mice were observed”.
